The nature of series [1]: Urinary excretion of unchanged FDV after single ascending dose (Part 1). The format is in vivo, human. To be noted: gMean (gCV%). As for the experimental part:
Six volunteers received the active drug at each dose level dissolved in a polyethylene glycol (PEG)/tromethamine (TRIS)/meglumine solution, and two received a placebo. One dose level was tested within each group. Subject groups were dosed and evaluated sequentially, beginning with the lowest-dose group and proceeding stepwise to the highest-dose group. The next higher dose was administered only if no safety concerns arose during treatment of the preceding group.
A blank urine sample was collected prior to drug administration, and two 10-mL aliquots were retained to be checked for analytical interference. All urine voided during the sampling intervals 0–4, 4–12, 12–24, and 24–48 h after administration was collected in containers (Figure 1). Subjects were asked to completely void their bladder at the end of each collection interval. The urine volume for each collection interval was documented. Two aliquots of approximately 5 mL were taken and frozen at −20 °C or below and stored for bioanalytical measurement. Until shipped on dry ice to the analytical laboratory, the urine samples were stored at −20 °C or below at the clinical site and stored in the analytical laboratory at −20 °C or below until analysis.
Standard formulas for non-compartmental pharmacokinetic analysis provided by WinNonlin were used in determination of the maximum concentration (Cmax), time to maximum concentration (tmax), oral clearance (CL/F), mean residence time (MRTpo), and apparent volume distribution in terminal phase (Vz/F). The area under the plasma concentration–time curve (AUC) was calculated using a linear up/log down trapezoidal algorithm. The predicted concentration at the last time-point with quantifiable concentration was used for extrapolation of AUC. The fraction excreted as unchanged drug in urine (fe) was calculated as the percentage of the amount of drug excreted in urine as unchanged drug (Aet1–t2) compared to the administered dose ([Huang et al., 2008b]).

On the set-up of series [2]: method as in Duan et al., 2012. Conditions: rats; ref Duan et al., 2012; cited from earlier work.
A further series relates to HCV. Also on record: method as in Ferenci et al., 2015. Conditions: in combination with PegIFN and RBV, treatment-naïve patients; ref Ferenci et al., 2015; cited from earlier work.
The next series concerns CYP3A4. To be noted: therapeutic dose of 120 mg QD; cited from earlier work.

Turning to `C=C[C@@H]1C[C@]1(NC(=O)[C@@H]1C[C@@H](Oc2cc(-c3csc(NC(=O)C(C)C)n3)nc3c(Br)c(OC)ccc23)CN1C(=O)[C@@H](NC(=O)OC1CCCC1)C(C)(C)C)C(=O)O` [FDV, Faldaprevir], the “Fe0–48h (fraction excreted in urine)” value in series [1] (FDV 48 mg single oral dose) is reported as 0.01 (165) %; in series [1] (FDV 120 mg single oral dose), 0.02 (93) %; in series [1] (FDV 240 mg single oral dose), 0.04 (68) %; in series [1] (FDV 480 mg single oral dose), 0.04 (37) %; in series [1] (FDV 800 mg single oral dose) it was 0.03 (110) %; in series [1] (FDV 1,200 mg single oral dose), 0.03 (54) %. In addition, the “Enrichment in the liver compared with plasma” value in series [2] is given as 42 fold. Besides, the “Sustained virologic response (SVR) rate” value in the series on HCV is listed as “up to 84%”. In the series with CYP3A4, the “Effect on CYP3A4” value is “weak inhibitory effects”.

The values are drawn from publication PMC12440775 (Frontiers in Pharmacology, 2025).
